Measurements taken from ChEMBL document CHEMBL3352395, “Quantitative structure-activity relationship of antifungal activity of rosin derivatives” (2015).

Assays:
Trametes versicolor = experiment: Antifungal activity against Trametes versicolor after 3 to 5 days by paper disc method relative to 1227; format: functional
Gloeophyllum trabeum = experiment: Antifungal activity against Gloeophyllum trabeum after 3 to 5 days by paper disc method relative to 1227; format: functional

| Compound | Ratio (Trametes versicolor) | log(ratio) (Trametes versicolor) | Ratio (Gloeophyllum trabeum) | log(ratio) (Gloeophyllum trabeum) | inhibition zone (IZ) (Trametes versicolor) [mm] | inhibition zone (IZ) (Gloeophyllum trabeum) [mm] |
| --- | --- | --- | --- | --- | --- | --- |
| CC(C)C1CC[C@H]2C(CC[C@@H]3[C@]2(C)CCC[C@@]3(C)C(=O)O)C1 (stereo not given in full) | 26.67 | 1.426 | 36.36 | 1.5607 |  |  |
| CC(C)C1CC[C@H]2C(CC[C@@H]3[C@]2(C)CCC[C@@]3(C)C(=O)OCC(O)CCl)C1 (stereo not given in full) | 26.67 | 1.426 | 36.36 | 1.5607 |  |  |
| CC(C)C1=CC23CC[C@@H]4[C@](C)(CCC[C@@]4(C)C(=O)O)[C@H]2CC1CC3C(=O)O (stereo not given in full) | 26.67 | 1.426 | 36.36 | 1.5607 |  |  |
| CC(C)C1=CC23CC[C@@H]4[C@](C)(CCC[C@@]4(C)C(=O)OCC(O)CCl)[C@H]2CC1CC3C(=O)OCC(O)CCl (stereo not given in full) | 26.67 | 1.426 | 36.36 | 1.5607 |  |  |
| CCOC(=O)[C@]1(C)CCC[C@@]2(C)[C@H]1CC=C1C=C(C(C)C)CC[C@@H]12 | 26.67 | 1.426 | 36.36 | 1.5607 |  |  |
| CC(C)C1=CC2=CC[C@@H]3[C@](C)(CCC[C@@]3(C)C(=O)OCC(O)CCl)[C@H]2CC1 (stereo not given in full) | 26.67 | 1.426 | 36.36 | 1.5607 |  |  |
| CC(C)c1ccc2c(c1)CC[C@H]1[C@](C)(C(=O)OCC(O)CCl)CCC[C@]21C (stereo not given in full) | 30 | 1.4771 | 40.91 | 1.6118 |  |  |
| CC(C)C1CC[C@H]2C(CC[C@@H]3[C@]2(C)CCC[C@@]3(C)C(=O)OCC(O)C[N+](C)(C)C)C1 (stereo not given in full) | 53.33 | 1.727 | 59.09 | 1.7715 |  |  |
| CC[N+](CC)(CC)CC(O)COC(=O)[C@]1(C)CCC[C@@]2(C)[C@H]1CCC1CC(C(C)C)CC[C@@H]12 (stereo not given in full) | 56.67 | 1.7533 | 59.09 | 1.7715 |  |  |
| CC[N+](CC)(CC(O)COC(=O)[C@]1(C)CCC[C@@]2(C)[C@H]1CCC1CC(C(C)C)CC[C@@H]12)CC1CO1 (stereo not given in full) | 40 | 1.6021 | 59.09 | 1.7715 |  |  |
| CCN(CC)CC(O)COC(=O)[C@]1(C)CCC[C@@]2(C)[C@H]1CCC1CC(C(C)C)CC[C@@H]12 (stereo not given in full) | 33.33 | 1.5229 | 50 | 1.699 |  |  |
| CC(C)C1=CC2=CC[C@@H]3[C@](C)(CCC[C@@]3(C)C(=O)OCC(O)C[N+](C)(C)CC3CO3)[C@H]2CC1 (stereo not given in full) | 46.67 | 1.669 | 63.64 | 1.8037 |  |  |
| CC(C)c1ccc2c(c1)CC[C@H]1[C@](C)(C(=O)OCC(O)C[N+](C)(C)C)CCC[C@]21C (stereo not given in full) | 60 | 1.7782 | 81.82 | 1.9128 |  |  |
| CC[N+](CC)(CC)CC(O)COC(=O)[C@]1(C)CCC[C@]2(C)c3ccc(C(C)C)cc3CC[C@@H]12 (stereo not given in full) | 56.67 | 1.7533 | 81.82 | 1.9128 |  |  |
| CC(C)c1ccc2c(c1)CC[C@H]1[C@](C)(C(=O)OCC(O)CN(C)C)CCC[C@]21C (stereo not given in full) | 43.33 | 1.6368 | 68.18 | 1.8337 |  |  |
| CC(C)c1ccc2c(c1)CC[C@H]1[C@](C)(C(=O)OCC(O)C[N+](C)(C)CC3CO3)CCC[C@]21C (stereo not given in full) | 50 | 1.699 | 77.27 | 1.888 |  |  |
| CC(C)C1=CC23CC[C@@H]4[C@](C)(CCC[C@@]4(C)C(=O)OCC(O)C[N+](C)(C)C)[C@H]2CC1CC3C(=O)OCC(O)C[N+](C)(C)C (stereo not given in full) | 70 | 1.8451 | 81.82 | 1.9128 |  |  |
| CC[N+](CC)(CC)CC(O)COC(=O)C1CC2C[C@H]3C1(C=C2C(C)C)CC[C@@H]1[C@]3(C)CCC[C@@]1(C)C(=O)OCC(O)C[N+](CC)(CC)CC (stereo not given in full) | 66.67 | 1.8239 | 77.27 | 1.888 |  |  |
| CC(C)C1=CC23CC[C@@H]4[C@](C)(CCC[C@@]4(C)C(=O)OCC(O)CN(C)C)[C@H]2CC1CC3C(=O)OCC(O)CN(C)C (stereo not given in full) | 46.67 | 1.669 | 59.09 | 1.7715 |  |  |
| CC(C)C1=CC23CC[C@@H]4[C@](C)(CCC[C@@]4(C)C(=O)OCC(O)C[N+](C)(C)CC4CO4)[C@H]2CC1CC3C(=O)OCC(O)C[N+](C)(C)CC1CO1 (stereo not given in full) | 60 | 1.7782 | 77.27 | 1.888 |  |  |
| CC[N+](CC)(CC(O)COC(=O)C1CC2C[C@H]3C1(C=C2C(C)C)CC[C@@H]1[C@]3(C)CCC[C@@]1(C)C(=O)OCC(O)C[N+](CC)(CC)CC1CO1)CC1CO1 (stereo not given in full) | 63.33 | 1.8016 | 77.27 | 1.888 |  |  |
| CC(C)C1=CC2=CC[C@@H]3[C@](C)(CCC[C@@]3(C)C(=O)OCC(O)C[N+](C)(C)CC[N+](C)(C)CC(O)COC(=O)[C@]3(C)CCC[C@@]4(C)[C@H]3CC=C3C=C(C(C)C)CC[C@@H]34)[C@H]2CC1 (stereo not given in full) | 56.67 | 1.7533 | 72.73 | 1.8617 |  |  |
| CC[N+](CC)(CC)CC(O)COC(=O)C1C2C[C@H]3C(C=C2C(C)C)(CC[C@@H]2[C@]3(C)CCC[C@@]2(C)C(=O)OCC(O)C[N+](CC)(CC)CC)C1C(=O)OCC(O)C[N+](CC)(CC)CC.[Cl-].[Cl-].[Cl-] (stereo not given in full) | 86.7 |  | 95.5 |  | 26 | 21 |
| CC(C)C1=CC2=CC[C@@H]3[C@](C)(CCC[C@@]3(C)C(=O)O)[C@H]2CC1 [ABIETIC ACID] | 26.67 | 1.426 | 36.36 | 1.5607 |  |  |
| CC(C)c1ccc2c(c1)CC[C@H]1[C@](C)(C(=O)O)CCC[C@]21C [DEHYDROABIETIC ACID] | 30 | 1.4771 | 40.91 | 1.6118 |  |  |
